Consider one compound from article PMC11840788, “3,3′-Diindolylmethane (DIM): A Molecular Scaffold for Inhibition of WWP1 and WWP2, Members of the NEDD4 Family HECT E3 Ligases” (ACS Omega, 2025).

Where “and” joins values, the source holds several entries; their conditions need not be identical. Identical values can stand only once.

Experiment [1] has as its target T1, WWP1 (His-tagged WWP1-L34H) (Homo sapiens, UniProt Q9H0M0).
T1 construct: WWP1- 2,3-linker-WW3-WW4-HECT (WWP1-L34H); made in house; host or cells: E. coli BL21-CodonPlus RP (plasmid pET32a-WWP1-L34H, gift of Dr Wenyu Wen)
Briefly: in vitro autoubiquitination assay (single shot and dose dependency), WWP1. Type of experiment: biochemical. Here is the method: (§1) A single shot in vitro autoubiquitination assay was performed for I3C, DIM and each of the derivatives against WWP1 and WWP2 using a compound concentration of 1 mM (1% DMSO) (SI Figure S3). […] These active compounds were then subjected to a detailed dose dependency analysis leading to IC50 values. This strategy has previously been employed to screen other WWP1/WWP2 small molecule inhibitors as well as used to assess I3C inhibition toward NEDD4-1.[29],[32] In this way, compounds displaying a relative activity (RA) of less than 50% in the single shot assay were further screened for dose-dependency using a logarithmic concentration range from 10 nM to 1 mM (1% DMSO) (SI Figure S4). […] These were confirmed by counter assays to remove compounds possibly interacting with other enzymes in the assay or interfering with the assay directly (SI Table S1).
(§2) Cell lysate containing His-tagged WWP1-L34H or GST-tagged WWP2-FL proteins were incubated on either 96-well Clear Pierce glutathione or nickel-coated plates for 1 h. Reaction mixtures of either 3 ng/well GST-Uba1 and 15 ng/well UbcH7 or 10 ng/well His-Uba1 and 150 ng/well His-UbcH7 were incubated together in 25 mM Tris pH 8.0, 100 mM NaCl, 4 mM MgCl2 containing 60 ng/well FLAG-ubiquitin and 1.25 mM ATP for 40 min. A prior 1% BSA plate blocking step is required for nickel-coated plates. After plate washing, 2 μL of the compound was added at the desired concentration (1% DMSO) followed by 18 μL of the reaction mixture. This was then incubated for 2 h with 0 and 100% controls before 100 μL of anti-FLAG M2-Peroxidase HRP (1:10,000 PBST) was added to each well and incubated for 1 h. Finally, 100 μL of 1 × TMB substrate solution (Invitrogen) was added to each well and incubated for up to 10 min until sufficient blue color change was observed. To stop the reaction, 100 μL of 1 M HCl was added. For the counter assay, 3 ng/well GST-Uba1 and 200 ng/well UbcH7 were incubated with the other reaction mixture components for 1 h before incubating onto plates for a further 1 h. All other steps were followed. The plates were washed three times with PBST (and 15 mM Imidazole) between each step. Quantification was measured by absorbance read at 450 nm. All assay optimizations were as previously reported.[32] IC50 nonlinear regression curves were calculated in GraphPad v10.2 (Prism). […]
(§3) Auto-ubiquitination Assay
(§4) Cell lysate containing His-tagged WWP1-L34H or GST-tagged WWP2-FL proteins were incubated on either 96-well Clear Pierce glutathione 2 or nickel-coated plates for 1 hour. Reaction mixtures of either 3 ng/well GST-Uba1 and 15 ng/well UbcH7 or 10 ng/well His-Uba1 and 150 ng/well His-UbcH7 were incubated together in 25 mM Tris pH 8.0, 100 mM NaCl, 4 mM MgCl2 containing 60 ng/well FLAG-ubiquitin and 1.25 mM ATP for 40 minutes. A prior 1 % BSA plate blocking step is required for nickel-coated plates. After plate washing, 2 μL of the compound was added at the desired concentration (1 % DMSO) followed by 18 μL of the reaction mixture. This was then incubated for 2 hours with 0% and 100% controls before 100 μL of anti-FLAG M2-Peroxidase HRP (1: 10,000 PBST) was added to each well and incubated for 1 hour.
(§5) Finally, 100 μL of 1 × TMB substrate solution (Invitrogen) was added to each well and […]
(§6) incubated for up to 10 minutes until sufficient blue colour change was observed. To stop the reaction, 100 μL of 1 M HCl was added. For the counter assay, 3 ng/well GST-Uba1 and 200 ng/well UbcH7 were incubated with the other reaction mixture components for 1 hour before incubating onto plates for a further 1 hour. All other steps were followed.
(§7) The plates were washed three times with PBST (and 15 mM Imidazole) between each step. Quantification was measured by absorbance read at 450 nm. All assay optimisations have been previously reported by Watt and colleagues3.
(§8) Relative activity (RA) was determined by comparing the autoubiquitination of the WWP ligases in the presence of each compound, i.e TMB absorbance (450 nm), to the […]

For experiment [2], the target named is T2, WWP2 (GST-tagged WWP2-FL) (Homo sapiens, UniProt O00308).
T2 construct: Full- length WWP2 (WWP2-FL); made in house; host or cells: E. coli BL21-CodonPlus RP (plasmid pGEX2T-WWP2-FL, Dr Andrew Chantry's Lab)
Put plainly: in vitro autoubiquitination assay (single shot and dose dependency), WWP2. Type of experiment: biochemical. The note with it: single shot, compound at 1 mM (1% DMSO), standardized to 0 and 100% controls. The method, then: as §1, §2, §3, §4, §5, §6, §7, §8

Another experiment concerns NEDD4-1. Set-up: method as in PMID 27979631. The note with it: cited from earlier work.
The target in experiment [3] is WWP1 HECT domain. More on the design: method as in PMID 31097636. The note with it: microscale thermophoresis, read-out: KD (dissociation constant) WWP1; cited from earlier work. In general terms: MST reads how a fluorescent partner responds to local heating, with and without ligand.
The subject of experiment [4] is WWP1 HECT domain. More on the design: method as in doi:10.1016/j.phytol.2023.01.002. Particulars: thermal shift analysis; cited from earlier work.

T1 sequence (Q9H0M0 415-922, stated change not applied): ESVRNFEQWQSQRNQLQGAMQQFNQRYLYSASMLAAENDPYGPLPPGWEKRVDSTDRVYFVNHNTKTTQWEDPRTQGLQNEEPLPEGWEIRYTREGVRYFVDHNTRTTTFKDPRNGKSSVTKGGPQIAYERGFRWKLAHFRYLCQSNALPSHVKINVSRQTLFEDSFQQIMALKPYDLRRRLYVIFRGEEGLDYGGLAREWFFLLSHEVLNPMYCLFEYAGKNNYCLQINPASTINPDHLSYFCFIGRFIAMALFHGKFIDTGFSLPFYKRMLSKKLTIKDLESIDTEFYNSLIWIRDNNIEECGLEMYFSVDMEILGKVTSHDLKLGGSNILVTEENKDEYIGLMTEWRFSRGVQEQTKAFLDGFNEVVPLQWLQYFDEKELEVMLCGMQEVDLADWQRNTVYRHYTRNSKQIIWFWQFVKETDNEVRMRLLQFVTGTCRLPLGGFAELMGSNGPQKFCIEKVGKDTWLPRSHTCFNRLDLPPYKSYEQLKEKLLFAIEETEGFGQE
T2 sequence (O00308 whole entry): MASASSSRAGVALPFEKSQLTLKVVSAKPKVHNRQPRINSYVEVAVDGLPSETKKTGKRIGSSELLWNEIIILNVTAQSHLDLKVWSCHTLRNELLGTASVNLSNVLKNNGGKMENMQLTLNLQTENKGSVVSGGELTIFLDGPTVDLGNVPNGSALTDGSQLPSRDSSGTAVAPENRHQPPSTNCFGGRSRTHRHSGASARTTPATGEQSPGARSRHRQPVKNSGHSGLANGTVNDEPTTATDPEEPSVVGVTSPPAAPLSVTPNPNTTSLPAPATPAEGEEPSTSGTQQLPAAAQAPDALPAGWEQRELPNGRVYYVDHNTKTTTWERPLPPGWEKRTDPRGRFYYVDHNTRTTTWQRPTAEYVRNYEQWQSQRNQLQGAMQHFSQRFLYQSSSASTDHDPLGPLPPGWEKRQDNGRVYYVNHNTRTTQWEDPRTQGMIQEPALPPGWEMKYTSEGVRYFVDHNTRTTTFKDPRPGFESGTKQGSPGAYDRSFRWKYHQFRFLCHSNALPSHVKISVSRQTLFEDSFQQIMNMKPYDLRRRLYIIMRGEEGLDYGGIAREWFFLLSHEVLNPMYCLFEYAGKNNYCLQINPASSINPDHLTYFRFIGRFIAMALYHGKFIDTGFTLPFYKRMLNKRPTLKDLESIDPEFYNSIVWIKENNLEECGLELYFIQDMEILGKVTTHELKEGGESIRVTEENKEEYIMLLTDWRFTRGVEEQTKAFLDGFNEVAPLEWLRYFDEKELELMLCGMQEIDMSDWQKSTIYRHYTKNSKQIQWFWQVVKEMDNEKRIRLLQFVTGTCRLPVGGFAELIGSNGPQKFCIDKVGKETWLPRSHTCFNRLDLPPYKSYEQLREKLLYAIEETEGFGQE

As to `OCc1c[nH]c2ccccc12` [Compound I3C, Indole-3-carbinol, reference compound], the “inhibition of WWP1 (in words)” value in experiment [1] (autoubiquitination assay) was “displayed inhibition”. In addition, the IC50 (in general, the concentration needed to halve the response being measured) in experiment [1] (nonlinear regression of RA against log concentration, 1 mM to 10 nM, 1% DMSO) was ~1.01 mM and 1.01 mM; with NEDD4-1, 284 µM. For the same compound, the “WWP1 RA (%) relative activity” value in experiment [1] (single shot, compound at 1 mM (1% DMSO), standardized to 0 and 100% controls) was 48.2 ± 8.6% and 48.2%. Moreover, the “WWP2 RA (%) relative activity” value in experiment [2] was 88.0 ± 7.5% and 88.0%. In addition, the Kd (commonly the constant that tells how readily two partners part at equilibrium) at WWP1 HECT domain [3] is 450 nM. Further, the “shift in Tm” value in the experiment with WWP1 HECT domain [4] was 3.8 °C.
